The source of these data is patent US11439622B2 (OXFORD UNIVERSITY INNOVATION LIMITED, priority 2015, dated 2022).

What all share (assay type): biochemical
The target in assay [1] is NDM-1 (New Delhi metallo-β-lactamase-1) (Klebsiella pneumoniae, UniProt C7C422). As to the kind of experiment: Enzyme inhibition assay, NDM-1. The settings on record: read-out: pIC50 NDM-1 (converted). Here is the method:
(§1) The biological activity of the compounds of the present invention was tested using standard assay protocols.^7 The following representative enzymes NDM-1 (New Delhi metallo-β-lactamase-1), IMP-1 (Imipenemase-1) and VIM-2 (Veronese metallo-β-lactamase-2) were selected from different clinically relevant B1 metallo-β-lactamases.

For assay [2], the target named is VIM-2 (Veronese metallo-β-lactamase-2) (Escherichia coli, UniProt Q5U7L7). Description: Enzyme inhibition assay, VIM-2. The settings on record: read-out: pIC50 VIM-2 (converted). Here is the method:
as §1

The next assay deals with IMP-1 (Imipenemase-1) (Serratia marcescens, UniProt P52699). As to the kind of experiment: Enzyme inhibition assay, IMP-1. The settings on record: read-out: pIC50 IMP-1 (converted). Here is the method: as §1
Sequence of IMP-1 (Imipenemase-1) (P52699 19-246, looked up, species assumed): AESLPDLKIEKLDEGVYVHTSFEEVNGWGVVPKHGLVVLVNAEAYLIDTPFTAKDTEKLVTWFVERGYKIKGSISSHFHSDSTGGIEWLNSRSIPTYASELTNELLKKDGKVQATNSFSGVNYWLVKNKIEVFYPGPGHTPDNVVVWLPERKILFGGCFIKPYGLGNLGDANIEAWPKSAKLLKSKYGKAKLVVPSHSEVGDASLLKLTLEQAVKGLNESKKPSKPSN

Sequence of NDM-1 (New Delhi metallo-β-lactamase-1) (C7C422 29-270, looked up, species assumed): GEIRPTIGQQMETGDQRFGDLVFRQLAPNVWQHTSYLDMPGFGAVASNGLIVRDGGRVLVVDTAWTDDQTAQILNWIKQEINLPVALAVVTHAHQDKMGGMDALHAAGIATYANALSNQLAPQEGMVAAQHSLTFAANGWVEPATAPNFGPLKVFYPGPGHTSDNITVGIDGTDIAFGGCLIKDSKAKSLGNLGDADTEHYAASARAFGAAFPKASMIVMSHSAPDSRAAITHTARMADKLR

On to `CC(C)c1cccc2c(-c3ccc(S(N)(=O)=O)cc3)c(C(=O)O)[nH]c12` [Example 65, 7-isopropyl-3-(4-sulfamoylphenyl)-1H-indole-2-carboxylic acid], for which the IC50 in assay [1] is 0.00158 µM; in assay [2], 0.0126 µM; at IMP-1 (Imipenemase-1), 0.0316 µM.

Turning to `CC(C)c1cccc2c(-c3ccccc3)c(C(=O)O)[nH]c12` [Example 66, 7-isopropyl-3-phenyl-1H-indole-2-carboxylic acid], the IC50 in assay [1] is 0.00501 µM; in assay [2], 0.0316 µM; on IMP-1 (Imipenemase-1) it was 0.0316 µM.

With `CC(C)c1cccc2c(-c3ccc(S(C)(=O)=O)cc3)c(C(=O)O)[nH]c12` [Example 67, 7-isopropyl-3-(4-(methylsulfonyl)phenyl)-1H-indole-2-carboxylic acid], the IC50 in assay [1] is 0.00251 µM; in assay [2], 0.02 µM; on IMP-1 (Imipenemase-1) it was 0.0398 µM.

On to `CC(C)c1cccc2c(-c3ccncc3)c(C(=O)O)[nH]c12` [Example 68, 7-isopropyl-3-(pyridin-4-yl)-1H-indole-2-carboxylic acid], for which the IC50 in assay [1] was 0.00631 µM; in assay [2] it was 0.0316 µM; at IMP-1 (Imipenemase-1), 0.0398 µM.

Turning to `CC(C)c1cccc2c(-c3ccc(C(N)=O)cc3)c(C(=O)O)[nH]c12` [Example 69, 3-(4-carbamoylphenyl)-7-isopropyl-1H-indole-2-carboxylic acid], the IC50 in assay [1] is 0.00251 µM; in assay [2] it was 0.00794 µM; at IMP-1 (Imipenemase-1) it was 0.0126 µM.

As to `CC(C)c1cccc2c(-c3ccc(N4CCOCC4)cc3)c(C(=O)O)[nH]c12` [Example 70, 7-isopropyl-3-(4-morpholinophenyl)-1H-indole-2-carboxylic acid], the results for the IC50 (in assay [1]; in assay [2]; on IMP-1 (Imipenemase-1)) were 0.00251 µM, 0.0794 µM and 0.01 µM, respectively.

For `CC(C)c1cccc2c(-c3ccc(Cl)cc3)c(C(=O)O)[nH]c12` [Example 71, 3-(4-chlorophenyl)-7-isopropyl-1H-indole-2-carboxylic acid], the IC50 in assay [1] is 0.00398 µM; in assay [2], 0.02 µM; on IMP-1 (Imipenemase-1) it was 0.0398 µM.

On to `CC(C)c1cccc2c(-c3ccccc3Cl)c(C(=O)O)[nH]c12` [Example 72, 3-(2-chlorophenyl)-7-isopropyl-1H-indole-2-carboxylic acid], for which the IC50 in assay [1] is 0.0501 µM; in assay [2], 0.0126 µM; at IMP-1 (Imipenemase-1), 2.51 µM.

In the case of `CC(C)c1cccc2c(-c3ccc(S(=O)(=O)N(C)C)cc3)c(C(=O)O)[nH]c12` [Example 73], the IC50 in assay [1] was 0.000355 µM; in assay [2], 0.0316 µM; at IMP-1 (Imipenemase-1), 0.0316 µM.

Regarding `CC(C)c1cccc2c(-c3ccc(C(=O)N(C)C)cc3)c(C(=O)O)[nH]c12` [Example 74, 3-(4-(dimethylcarbamoyl)phenyl)-7-isopropyl-1H-indole-2-carboxylic acid], the figures for the IC50 (in assay [1]; in assay [2]; on IMP-1 (Imipenemase-1)) were 0.000562 µM, 0.0794 µM and 0.02 µM, respectively.

In the case of `CC(C)c1cccc2c(-c3ccc4[nH]ncc4c3)c(C(=O)O)[nH]c12` [Example 75, 3-(1H-indazol-5-yl)-7-isopropyl-1H-indole-2-carboxylic acid], the IC50 was 0.002 µM in assay [1], 0.01 µM in assay [2] and 0.0251 µM at IMP-1 (Imipenemase-1).

As for `COc1cccc(-c2c(C(=O)O)[nH]c3c(C(C)C)cccc23)c1OC` [Example 77, 3-(2,3-dimethoxyphenyl)-7-isopropyl-1H-indole-2-carboxylic acid], the IC50 is 0.2 µM in assay [1], 0.00631 µM in assay [2] and 12.6 µM at IMP-1 (Imipenemase-1).

In the case of `CC(C)c1cccc2c(-c3cc(F)cc(F)c3)c(C(=O)O)[nH]c12` [Example 78, 3-(3,5-difluorophenyl)-7-isopropyl-1H-indole-2-carboxylic acid], the IC50 in assay [1] was 0.01 µM; in assay [2] it was 0.00398 µM; at IMP-1 (Imipenemase-1), 0.126 µM.

As for `CC(C)c1cccc2c(-c3ccc(Cn4cccn4)cc3)c(C(=O)O)[nH]c12` [Example 79, 3-(4-((1H-pyrazol-1-yl)methyl)phenyl)-7-isopropyl-1H-indole-2-carboxylic acid], the IC50 is 0.000501 µM in assay [1], 0.00398 µM in assay [2] and 0.0158 µM at IMP-1 (Imipenemase-1).

For `CC(C)c1cccc2c(-c3ccc(Cn4cncn4)cc3)c(C(=O)O)[nH]c12` [Example 80, 3-(4-((1H-1,2,4-triazol-1-yl)methyl)phenyl)-7-isopropyl-1H-indole-2-carboxylic acid], the IC50 in assay [1] is 0.000631 µM; in assay [2], 0.01 µM; on IMP-1 (Imipenemase-1) it was 0.02 µM.

With `CN(C)S(=O)(=O)c1ccc(-c2c(C(=O)O)[nH]c3c(CCOc4ccccc4)cccc23)cc1` [Example 81, 3-(4-(N,N-dimethylsulfamoyl)phenyl)-7-(2-phenoxyethyl)-1H-indole-2-carboxylic acid], the IC50 in assay [1] is 0.00158 µM; in assay [2] it was 0.0631 µM; on IMP-1 (Imipenemase-1), 0.1 µM.

Regarding `Cc1c(Oc2ccccc2)ccc2c(-c3ccc(S(=O)(=O)N(C)C)cc3)c(C(=O)O)[nH]c12` [Example 82, 3-(4-(N,N-dimethylsulfamoyl)phenyl)-7-methyl-6-phenoxy-1H-indole-2-carboxylic acid], the values for the IC50 (in assay [1]; in assay [2]; at IMP-1 (Imipenemase-1)) were 0.00398 µM, 0.158 µM and 0.501 µM, respectively.

Turning to `CN(C)C(=O)c1ccc(-c2c(C(=O)O)[nH]c3c(CCOc4ccccc4)cccc23)cc1` [Example 83, 3-(4-(dimethylcarbamoyl)phenyl)-7-(2-phenoxyethyl)-1H-indole-2-carboxylic acid], the IC50 in assay [1] was 0.00398 µM; in assay [2] it was 0.1 µM; on IMP-1 (Imipenemase-1) it was 0.0631 µM.

For `O=C(O)c1[nH]c2c(CCOc3ccccc3)cccc2c1-c1ccc(Cl)cc1` [Example 84, 3-(4-chlorophenyl)-7-(2-phenoxyethyl)-1H-indole-2-carboxylic acid], the IC50 in assay [1] is 0.0372 µM; in assay [2], 0.02 µM; on IMP-1 (Imipenemase-1) it was 0.631 µM.

`Cc1c(Oc2ccccc2)ccc2c(-c3ccc(Cl)cc3)c(C(=O)O)[nH]c12` [Example 85, 3-(4-chlorophenyl)-7-methyl-6-phenoxy-1H-indole-2-carboxylic acid]: the IC50 is 0.1 µM in assay [1], 0.158 µM in assay [2] and 1 µM on IMP-1 (Imipenemase-1).

Regarding `Cc1c(Oc2ccccc2)ccc2c(-c3ccc(C(=O)N(C)C)cc3)c(C(=O)O)[nH]c12` [Example 86, 3-(4-(dimethylcarbamoyl)phenyl)-7-methyl-6-phenoxy-1H-indole-2-carboxylic acid], the IC50 in assay [1] was 0.00741 µM; in assay [2], 0.575 µM; on IMP-1 (Imipenemase-1), 0.646 µM.

Take `CNS(=O)(=O)c1ccc(-c2c(C(=O)O)[nH]c3c(C(C)C)cccc23)cc1` [Example 88, 7-isopropyl-3-(4-(N-methylsulfamoyl)phenyl)-1H-indole-2-carboxylic acid]: the IC50 is 0.00427 µM in assay [1], 0.0102 µM in assay [2] and 0.0537 µM on IMP-1 (Imipenemase-1).

As to `CC(C)c1cccc2c(-c3ccc(C(=O)O)cc3)c(C(=O)O)[nH]c12` [Example 91, 3-(4-carboxyphenyl)-7-isopropyl-1H-indole-2-carboxylic acid], the IC50 was 0.00339 µM in assay [1], 0.00724 µM in assay [2] and 0.0447 µM on IMP-1 (Imipenemase-1).

Take `CC(C)c1cccc2c(-c3ccc(CN4CCOCC4)cc3)c(C(=O)O)[nH]c12` [Example 94, 7-isopropyl-3-(4-(morpholinomethyl)phenyl)-1H-indole-2-carboxylic acid]: the IC50 is 0.00589 µM in assay [1], 0.105 µM in assay [2] and 0.105 µM at IMP-1 (Imipenemase-1).

For the compound `CC(C)c1cccc2c(-c3ccc(S(=O)(=O)N(C)C)cc3)c(-c3nnn[nH]3)[nH]c12` [Example 102, 4-[7-isopropyl-2-(1H-tetrazol-5-yl)-1H-indol-3-yl]-N,N-dimethyl-benzenesulfonamide], the IC50 was 0.01 µM in assay [1], 0.407 µM in assay [2] and 13.2 µM at IMP-1 (Imipenemase-1).

As to `Cc1cccc2c(C3CCCCC3)c(C(=O)O)[nH]c12` [Example 103], the IC50 in assay [1] was 0.0794 µM; in assay [2] it was 3.16 µM; at IMP-1 (Imipenemase-1) it was 79.4 µM.

As to `Cc1cccc2c(C3CCCC3)c(C(=O)O)[nH]c12` [Example 104, 3-cyclopentyl-7-methyl-1H-indole-2-carboxylic acid], the IC50 in assay [1] is 0.251 µM; in assay [2], 12.6 µM; on IMP-1 (Imipenemase-1) it was 50.1 µM.

Take `Cc1cccc2c(C3CCN(C(=O)OC(C)(C)C)CC3)c(C(=O)O)[nH]c12` [Example 105, 3-(1-tert-butoxycarbonyl-4-piperidyl)-7-methyl-1H-indole-2-carboxylic acid]: the IC50 in assay [1] was 0.158 µM; in assay [2] it was 2.51 µM; at IMP-1 (Imipenemase-1) it was 31.6 µM.

For `O=C(O)c1[nH]c2c(C3CC3)cccc2c1-c1ccc(F)cc1` [Example 106, 7-cyclopropyl-3-(4-fluorophenyl)-1H-indole-2-carboxylic acid], the values for the IC50 (in assay [1]; in assay [2]; on IMP-1 (Imipenemase-1)) were 0.0126 µM, 0.0501 µM and 0.501 µM, respectively.

On to `Cc1cccc2c(Cc3ccc(Cl)cc3)c(C(=O)O)[nH]c12` [Example 107, 3-[(4-chlorophenyl)methyl]-7-methyl-1H-indole-2-carboxylic acid], for which the IC50 in assay [1] was 0.631 µM; in assay [2], 1.58 µM; on IMP-1 (Imipenemase-1) it was 3.98 µM.

As for `O=C(O)c1[nH]c2c(CCO)cccc2c1-c1ccc(F)cc1` [Example 108, 3-(4-fluorophenyl)-7-(2-hydroxyethyl)-1H-indole-2-carboxylic acid], the values for the IC50 (in assay [1]; in assay [2]; at IMP-1 (Imipenemase-1)) were 0.0501 µM, 0.794 µM and 3.16 µM, respectively.

For the compound `COc1cccc(-c2c(C(=O)O)[nH]c3c(C)cccc23)c1OC` [Example 116, 3-(2,3-dimethoxyphenyl)-7-methyl-1H-indole-2-carboxylic acid], the IC50 is 1.26 µM in assay [1], 0.0398 µM in assay [2] and above 100 µM on IMP-1 (Imipenemase-1).
